Test system: Plasmodium falciparum (strain 3D7)
Assay: Parasiticidal effect: level of parasitemia (percentage of MIRBCs) after bulk flow treatment of P. falciparum-infected human RBCs
Assay type: cell-based
Conditions: chloroquine 1 μM added immediately prior to flow treatment; PTNB mode 70 ps laser pulse; level of MIRBCs at 24 hours; FIG. 12c

CCN(CC)CCCC(C)Nc1ccnc2cc(Cl)ccc12 (stereo not shown) [chloroquine]
parasiticidal efficacy of PTNB mode compared with chloroquine: three-fold higher parasiticidal efficacy than chloroquine
